Assay results: ChEMBL document CHEMBL1921688, “Alkaloids from Chelidonium majus and their inhibitory effects on LPS-induced NO production in RAW264.7 cells” (Bioorg Med Chem Lett, 2011)
Active and inactive are the calls of the source. No cut-off for these calls is given here.

What was measured:
RAW264.7 [1] = test: Antiinflammatory activity in mouse RAW264.7 cells assessed as inhibition of LPS-induced nitric oxide production after 24 hrs by griess assay; format: functional, cell-based; settings: RAW264.7, 24 h
RAW264.7 [2] = test: Cytotoxicity against mouse RAW264.7 cells assessed as cell viability at 50 uM after 24 hrs by MTT assay; format: cell-based; settings: raw264.7, 24 h
RAW264.7 [3] = test: Antiinflammatory activity in mouse RAW264.7 cells assessed as inhibition of LPS-induced iNOS production after 18 hrs by Western blot analysis; format: functional, cell-based
RAW264.7 [4] = test: Antiinflammatory activity in mouse RAW264.7 cells assessed as inhibition of LPS-induced iNOS production at 1 uM after 18 hrs by Western blot analysis; format: functional, cell-based
RAW264.7 [5] = test: Antiinflammatory activity in mouse RAW264.7 cells assessed as inhibition of LPS-induced COX2 production after 18 hrs by Western blot analysis; format: functional, cell-based
RAW264.7 [6] = test: Antiinflammatory activity in mouse RAW264.7 cells assessed as inhibition of LPS-induced COX2 production at 3 uM after 18 hrs by Western blot analysis; format: functional, cell-based
RAW264.7 [7] = test: Antiinflammatory activity in mouse RAW264.7 cells assessed as inhibition of LPS-induced iNOS promoter activity; format: functional, cell-based
RAW264.7 [8] = test: Antiinflammatory activity in mouse RAW264.7 cells assessed as inhibition of LPS-induced COX2 promoter activity; format: functional, cell-based
RAW264.7 [9] = test: Antiinflammatory activity in mouse RAW264.7 cells assessed as inhibition of LPS-induced iNOS production at 3 uM after 18 hrs by Western blot analysis; format: functional, cell-based

| Compound | IC50 (RAW264.7 [1]) [µM] | Activity (RAW264.7 [2]) | inhibition (RAW264.7 [3]) | inhibition (RAW264.7 [4]) | inhibition (RAW264.7 [5]) | inhibition (RAW264.7 [6]) | inhibition (RAW264.7 [7]) | inhibition (RAW264.7 [8]) | inhibition (RAW264.7 [9]) |
| --- | --- | --- | --- | --- | --- | --- | --- | --- | --- |
| CN1c2c(ccc3cc4c(cc23)OCO4)-c2ccc3c(c2C1O)OCO3 (stereo not given) | 4.5 | Non-toxic | Dose-dependent effect | Active | Dose-dependent effect | Active | Active | Active | – |
| COC(=O)CC1c2c(ccc3c2OCO3)-c2ccc3cc4c(cc3c2N1C)OCO4 (stereo not given) | > 50 | Non-toxic | – | – | – | – | – | – | – |
| COc1ccc2cc3[n+](cc2c1OC)CCc1cc2c(cc1-3)OCO2 [BERBERINE] | > 30 | Non-toxic | – | – | – | – | – | – | – |
| CN1Cc2c(ccc3c2OCO3)[C@@H]2[C@H]1c1cc3c(cc1C[C@@H]2O)OCO3 [CHELIDONINE] | 7.3 | Non-toxic | Dose-dependent effect | – | Dose-dependent effect | Active | Active | Active | Active |
| O[C@@H]1Cc2cc3c(cc2[C@@H]2NCc4c(ccc5c4OCO5)[C@H]12)OCO3 [NORCHELIDONINE] | 16.5 | Non-toxic | – | – | – | – | – | – | – |
| CN1CCc2cc3c(cc2C(=O)Cc2ccc4c(c2C1)OCO4)OCO3 [PROTOPINE] | – | Non-toxic | – | – | – | – | – | – | – |
| c1cc2c(c3c1C[C@H]1c4cc5c(cc4CCN1C3)OCO5)OCO2 [STYLOPINE] | > 50 | Non-toxic | – | – | – | – | – | – | – |
